Measurements from patent US20020137154A1, “Methods for improving cell growth and alcohol production during fermentation” (priority 2000, published 2002).

How the values were obtained:
Type in all cases: cell-based
[1] = system: recombinant Escherichia coli KO11; assay: Batch fermentation of E. coli KO11 in 1% CSL medium and xylose with nutrient additives: ethanol production and cell growth; settings: additive 2 g/L unless indicated; for Ethanol Production Maximum / Ethanol Production Maximum % Control / Ethanol yield / Initial Growth (OD @ 24 h) % Control / Initial Growth (OD @ 24 h) OD / Maximum Cell Density % Control / Maximum Cell Density OD / Maximum Cell Density Time / Time to completion / Volumetric Productivity Average / Volumetric Productivity Average % Control / Volumetric Productivity Maximum / Volumetric Productivity Maximum % Control: 1% CSL+xylose; for activity at 2000 µg/mL: Escherichia coli
Protocol: (§1) Two types of media were tested: 1% CSL and Luria broth (LB). Each contained 97 g of either xylose or glucose per liter. Luria Broth consists of, per liter: 10 g Difco® Tryptone, 5 g Difco® Yeast Extract and 5 g NaCl. The 1% CSL medium consists of Corn Steep Liquor (1% w/v) plus mineral salts (mineral salts per liter: 1 g of KH2PO4. 0.5 g of K2HPO4, 3.1 g of (NH4)2SO4, 0.4 g of MgCl2·6H2), and 20 mg FeCl3·6H2O).
(§2) Luria Broth was prepared by autoclaving a 2× nutrient stock containing, per liter: 20 g Difco® Tryptone, 10 g Difo® Yeast Extract, and 10 g NaCl. Sugars (xylose or glucose) were autoclaved separately. A 1% CSL medium was prepared as follows: Commercial Corn Steep Liquor (CSL; 50% dry weight/50% water) was diluted with tap water to make a 20X stock containing 100 g dry weight of Corn Steep Liquor/L and was adjusted to pH 7.2 with NaOH (50%). After sterilization by autoclaving, the 20X CSL stock was clarified by centrifugation at 5000×g for 10 minutes. Magnesium was added as a 100× stock solution (40 g/L MgCl2·6H2O). Iron was added as a 1000× stock solution made by dissolving 20 g FeCl3·6H2O in 175 mL of HCl and adjusting to 1 L with sterile water. Nitrogen, sulfur and phosphorus were added using a 20× stock solution containing the following (per liter): 20 g of KH2PO4, 10 g of K2HPO4 and 62 g of (NH4)2SO4. Stock solutions containing minerals were sterilized separately by autoclaving. Final media was prepared by adding 750 mL of water to 1 L bottle containing 100 g of xylose or glucose.
Inocula were grown in same media used for fermentation and were prepared as follows. Three colonies from a fresh plate were used to inoculate seed cultures: 250-mL flask containing 100 mL medium. These cultures were grown with agitation (120 rpm) for 12-16 hours at 35° C. to a final OD550nm of approximately 2.0-2.5. Cells were harvested by centrifugation at 5000×g for 5 minutes, and resuspended in fresh media to an OD550nm of 0.1. The resulting suspension was distributed into 500-mL beakers containing 345 ml each of fermentation medium. Acetaldehyde was added as indicated. Batch fermentations (35° C., 100 rpm) were maintained at pH 6.5 by the automatic addition of 2N KOH. Cell mass, ethanol, and base addition (2N KOH) were recorded during 96 hours of incubation. […]
(§3) Additives (e.g., as listed in Table 1) were dissolved in 5 mL di-H2O. Solutions with pH lower than 5 were neutralized to pH 6.5 with 2N KOH. Nutritional supplements were then filter-sterilized (0.45 μm filter disk) directly into the fermentation vessel containing the culture. The final concentration of all additives in the culture medium was 2 g/L unless otherwise indicated.
(§4) Cell mass was estimated by measuring OD550nm using Baush & Lomb® Spectronic 70 spectrophotometer. […] Ethanol was measured by gas chromatography using a Varian® 3400 CX gas chromatograph with 1-propanol as an internal standard.
(§5) Tables 1, 3, and 5 show time to completion of fermentation, ethanol production, and volumetric productivity of the fermentation for all concentrations of the compound and the control. Maximum ethanol production is shown in grams/liter (g/L). The ethanol yield is shown in grams of ethanol/grams of added sugar. Maximum volumetric productivity is shown in grams ethanol/(liter)(hour). The average productivity is calculated form the start of fermentation to the completion of fermentation is grams ethanol/(liter)hour).
Tables 2, 4, and 6 show the initial growth of the cells (OD taken after the first 24 hours of fermentation) and the maximum cell density (the time which culture reaches the maximum OD value). […]

[2] = system: recombinant Escherichia coli KO11; assay: Batch fermentation of E. coli KO11 in Luria broth and xylose with nutrient additives: ethanol production and cell growth; settings: LB+xylose; additive 2 g/L unless indicated
Protocol: as §1, §2
(§6) Inocula were grown in same media used for fermentation and were prepared as follows. Three colonies from a fresh plate were used to inoculate seed cultures: 250-mL flask containing 100 mL medium. These cultures were grown with agitation (120 rpm) for 12-16 hours at 35° C. to a final OD550nm of approximately 2.0-2.5. Cells were harvested by centrifugation at 5000×g for 5 minutes, and resuspended in fresh media to an OD550nm of 0.1. The resulting suspension was distributed into 500-mL beakers containing 345 ml each of fermentation medium. Acetaldehyde was added as indicated. Batch fermentations (35° C., 100 rpm) were maintained at pH 6.5 by the automatic addition of 2N KOH. Cell mass, ethanol, and base addition (2N KOH) were recorded during 96 hours of incubation.
(§7) Equivalent amounts of distilled water were added instead of the acetaldehyde in control experiments.
as §3, §4, §5
(§8) Tables 2, 4, and 6 show the initial growth of the cells (OD taken after the first 24 hours of fermentation) and the maximum cell density (the time which culture reaches the maximum OD value).
(§9) Acetaldehyde was added to the fermentation medium at five different concentrations and time points. […] Where two additions are indicated, the first volume was added at the start of fermentation and the second was added after 8 hours of fermentation.

[3] = system: recombinant Escherichia coli KO11; assay: Batch fermentation of E. coli KO11 in 1% CSL medium and glucose with nutrient additives: ethanol production and cell growth; settings: additive 2 g/L unless indicated; for Ethanol Production Maximum / Ethanol Production Maximum % Control / Ethanol yield / Initial Growth (OD @ 24 h) % Control / Initial Growth (OD @ 24 h) OD / Maximum Cell Density % Control / Maximum Cell Density OD / Maximum Cell Density Time / Time to completion / Volumetric Productivity Average / Volumetric Productivity Average % Control / Volumetric Productivity Maximum / Volumetric Productivity Maximum % Control: 1% CSL+glucose; for activity at 2000 µg/mL: Escherichia coli
Protocol: as §1, §2, §6, §7, §3, §4, §5, §8, §9

[4] = 24 h, read-out: Initial Growth (OD @ 24 h) % Control, 1% CSL+xylose
[5] = read-out: Ethanol Production Maximum % Control, 1% CSL+xylose
[6] = read-out: Maximum Cell Density % Control, 1% CSL+xylose
[7] = read-out: Volumetric Productivity Average % Control, 1% CSL+xylose
[8] = read-out: Volumetric Productivity Maximum % Control, 1% CSL+xylose
[9] = 24 h, read-out: Initial Growth (OD @ 24 h) % Control, 1% CSL+glucose
[10] = read-out: Ethanol Production Maximum % Control, 1% CSL+glucose
[11] = read-out: Maximum Cell Density % Control, 1% CSL+glucose
[12] = read-out: Volumetric Productivity Average % Control, 1% CSL+glucose
[13] = read-out: Volumetric Productivity Maximum % Control, 1% CSL+glucose

SMILES | Ethanol Production Maximum [1] | Ethanol Production Maximum % Control [1] | Ethanol yield [1] | Initial Growth (OD @ 24 h) % Control [1] | Initial Growth (OD @ 24 h) OD [1] | Maximum Cell Density % Control [1] | Maximum Cell Density OD [1] | Maximum Cell Density Time [1] | Time to completion [1] | Volumetric Productivity Average [1] | Volumetric Productivity Average % Control [1] | Volumetric Productivity Maximum [1] | Volumetric Productivity Maximum % Control [1] | Ethanol Production Maximum [3] | Ethanol Production Maximum % Control [3] | Ethanol yield [3] | Initial Growth (OD @ 24 h) OD [3] | Maximum Cell Density OD [3] | Volumetric Productivity Average [3] | Volumetric Productivity Maximum [3] | further results
N[C@@H](CCC(=O)O)C(=O)O [Glutamate, glutamate] | 43.14 g/L | 143.43% | 0.444 grams of ethanol/grams of added sugar | 180.49% | 3.69 OD | 200.16% | 5.04 OD | 96 h | 96 h | 0.449 grams ethanol/(liter)(hour) | 143.43% | 0.665 grams ethanol/(liter)(hour) | 180.439% | 43.39 g/L | 117.30% | 0.447 grams of ethanol/grams of added sugar | 2.86 OD | 3.79 OD | 0.603 grams ethanol/(liter)(hour) | 0.763 grams ethanol/(liter)(hour) | Ethanol Production Maximum [2]: 44.67 g/L; Ethanol Production Maximum % Control [2]: 103.69%; Ethanol yield [2]: 0.460 grams of ethanol/grams of added sugar; Initial Growth (OD at 24 h) % Control [2]: 106.21%; Initial Growth (OD at 24 h) OD [2]: 10.61 OD; Maximum Cell Density % Control [2]: 96.07%; Maximum Cell Density OD [2]: 10.61 OD; Maximum Cell Density Time [2]: 24 h; Time to completion [2]: 48 h; Volumetric Productivity Average [2]: 0.931 grams ethanol/(liter)(hour); Volumetric Productivity Average % Control [2]: 103.69%; Volumetric Productivity Maximum [2]: 1.328 grams ethanol/(liter)(hour); Volumetric Productivity Maximum % Control [2]: 115.30%; Initial Growth (OD @ 24 h) % Control [3]: 107.10%; Maximum Cell Density % Control [3]: 140.94%; Maximum Cell Density Time [3]: 72 h; Time to completion [3]: 72 h; Volumetric Productivity Average % Control [3]: 156.40%; Volumetric Productivity Maximum % Control [3]: 148.52%
O=C(O)CC(O)C(=O)O (stereo not drawn) [Malate, malate] | 24.43 g/L |  | 0.252 grams of ethanol/grams of added sugar |  | 1.71 OD |  | 2.42 OD | 96 h |  | 0.255 grams ethanol/(liter)(hour) |  | 0.274 grams ethanol/(liter)(hour) |  | 27.58 g/L |  | 0.284 grams of ethanol/grams of added sugar | 3.19 OD | 3.39 OD | 0.287 grams ethanol/(liter)(hour) | 0.498 grams ethanol/(liter)(hour) | activity at 2000 µg/mL [1, 4]: 83.9%; activity at 2000 µg/mL [1, 5]: 81.2%; activity at 2000 µg/mL [1, 6]: 96.3%; activity at 2000 µg/mL [1, 7]: 81.2%; activity at 2000 µg/mL [1, 8]: 74.5%; activity at 2000 µg/mL [3, 9]: 119%; activity at 2000 µg/mL [3, 10]: 74.6%; activity at 2000 µg/mL [3, 11]: 126%; activity at 2000 µg/mL [3, 12]: 74.6%; activity at 2000 µg/mL [3, 13]: 97%
O=C(O)CC(=O)C(=O)O [Oxaloacetate] | 23.61 g/L |  | 0.243 grams of ethanol/grams of added sugar |  | 1.65 OD |  | 2.26 OD | 96 h |  | 0.246 grams ethanol/(liter)(hour) |  | 0.270 grams ethanol/(liter)(hour) |  | 39.72 g/L |  | 0.409 grams of ethanol/grams of added sugar | 3.29 OD | 3.46 OD | 0.552 grams ethanol/(liter)(hour) | 0.712 grams ethanol/(liter)(hour) | activity at 2000 µg/mL [1, 4]: 80.8%; activity at 2000 µg/mL [1, 5]: 78.5%; activity at 2000 µg/mL [1, 6]: 89.9%; activity at 2000 µg/mL [1, 7]: 78.5%; activity at 2000 µg/mL [1, 8]: 73.3%; activity at 2000 µg/mL [3, 9]: 123%; activity at 2000 µg/mL [3, 10]: 107%; activity at 2000 µg/mL [3, 11]: 129%; activity at 2000 µg/mL [3, 12]: 143%; activity at 2000 µg/mL [3, 13]: 138%
O=C(O)CCC(=O)O [Succinate, succinate] | 35.00 g/L | 116.35% | 0.360 grams of ethanol/grams of added sugar | 103.40% | 2.11 OD | 124.13% | 3.12 OD | 96 h | >96 h | 0.365 grams ethanol/(liter)(hour) | 116.35% | 0.400 grams ethanol/(liter)(hour) | 108.536% | 30.13 g/L | 81.46% | 0.310 grams of ethanol/grams of added sugar | 2.69 OD | 2.66 OD | 0.314 grams ethanol/(liter)(hour) | 0.511 grams ethanol/(liter)(hour) | Initial Growth (OD @ 24 h) % Control [3]: 100.47%; Maximum Cell Density % Control [3]: 98.99%; Maximum Cell Density Time [3]: 72 h; Time to completion [3]: 96 h; Volumetric Productivity Average % Control [3]: 81.46%; Volumetric Productivity Maximum % Control [3]: 99.45%
